Activity calls are given as the source filed them. The rule behind the calls is not given here.
Legend:
[1] = Metal chelating activity at iron(III) in chrome azurol sulphonate solution incubated for 30 mins by spectrophotometric analysis; conditions: dose 6.25-1000 µg/ml
Pseudomonas aeruginosa [2] = assay: Antibiotic adjuvant activity against Pseudomonas aeruginosa ATCC 10145 assessed as potentiation of ciprofloxacin-induced antibiofilm activity by measuring reduction in biofilm cells culturability at 500 ug/ml measured after 24 hrs in presence of ciprofloxacin by visual counting method; type: functional, organism-based; conditions: dose 500.0 µg/ml
Staphylococcus aureus [3] = assay: Inhibition of virulence production in Staphylococcus aureus CECT 976 biofilms assessed as diameter of protease halo at 1/2XMTC measured after 72 hrs in presence of 1/4XMIC tobramycin (reference value: 11.5 to 12.3 mm); type: functional
Pseudomonas aeruginosa [4] = assay: Antibiotic adjuvant activity against preestablished 24-hr old Pseudomonas aeruginosa ATCC 10145 assessed as potentiation of ciprofloxacin-induced antibiofilm activity by measuring reduction of biomass at 1000 ug/ml measured after 24 hrs in presence of 1/8XMIC ciprofloxacin by crystal violet staining method; type: functional, organism-based; conditions: dose 1000.0 µg/ml
Staphylococcus aureus [5] = assay: Inhibition of virulence production in pre-established 24 hr-old Staphylococcus aureus CECT 976 biofilms assessed as diameter of siderophores halo at 10XMTC measured after 48 hrs in presence of 1/4XMIC tobramycin (reference value: 11.5 +/-0.6 mm); type: functional
Staphylococcus aureus [6] = assay: Inhibition of virulence production in Staphylococcus aureus CECT 976 biofilms assessed as diameter of protease halo at 1/2XMTC measured after 72 hrs (reference value: 11.8 to 13.3 mm); type: functional
Staphylococcus aureus [7] = assay: Inhibition of virulence production in pre-established 24 hr-old Staphylococcus aureus CECT 976 biofilms assessed as diameter of siderophores halo at 1XMTC measured after 48 hrs (reference value: 11.5 to 11.8 mm); type: functional
Staphylococcus aureus [8] = assay: Inhibition of virulence production in Staphylococcus aureus CECT 976 biofilms assessed as diameter of gelatinases halo at 1/2XMTC measured after 48 hrs in presence of 1/8XMIC tobramycin (reference value: 11.3 to 12 mm); type: functional
Staphylococcus aureus [9] = assay: Inhibition of virulence production in Staphylococcus aureus CECT 976 biofilms assessed as diameter of gelatinases halo at 1XMTC measured after 48 hrs (reference value: 11.5 to 11.8 mm); type: functional
Staphylococcus aureus [10] = assay: Inhibition of virulence production in pre-established 24 hr-old Staphylococcus aureus CECT 976 biofilms assessed as diameter of siderophores halo at 10XMTC measured after 48 hrs in presence of 1XMIC tobramycin (reference value: 11.3 +/-0.5 mm); type: functional
Staphylococcus aureus [11] = assay: Antibacterial activity against Staphylococcus aureus CECT 976 assessed as inhibition of bacterial growth incubated for 24 hrs by broth microdilution method; type: functional
Staphylococcus aureus [12] = assay: Inhibition of virulence production in pre-established 24 hr-old Staphylococcus aureus CECT 976 biofilms assessed as diameter of gelatinases halo at 10XMTC measured after 48 hrs in presence of 1XMIC tobramycin (reference value: 9.5 to 10 mm); type: functional
Staphylococcus aureus [13] = assay: Antibacterial activity against Staphylococcus aureus CECT 976 assessed as inhibition of bacterial growth by measuring inhibition zone diameter at 1000 ug/ml incubated for 24 hrs in presence of gentamicin by disc diffusion method (reference value: 12 +/- 1.63 mm); type: functional; conditions: read-out: DIZ
Pseudomonas aeruginosa [14] = assay: Antibiofilm activity against preestablished 24 hr-old Pseudomonas aeruginosa ATCC 10145 assessed as biomass removal at 1000 to 10000 ug/ml measured after 24 hrs by crystal violet staining method; type: functional; conditions: dose 1000-10000 µg/ml, at 1000 to 10000 µg/mL
Staphylococcus aureus [15] = assay: Inhibition of virulence production in pre-established 24 hr-old Staphylococcus aureus CECT 976 biofilms assessed as diameter of siderophores halo at 10XMTC measured after 48 hrs in presence of 1/2XMIC tobramycin (reference value: 11.8 +/-0.5 mm); type: functional
Staphylococcus aureus [16] = assay: Antibiotic adjuvant activity against Staphylococcus aureus CECT 976 assessed as potentiation of tobramycin-induced antibacterial activity by measuring fractional inhibitory concentration index (MIC) at 62.5 ug/ml measured after 24 hrs by checkerboard assay; type: functional; conditions: dose 62.5 µg/ml
Cell membrane [17] = assay: Disruption of membrane integrity in pre-established 24 hr-old Staphylococcus aureus CECT 976 biofilm at 10XMTC measured after 24 hrs by PI staining based flow cytomtery; type: subcellular
[18] = Metal chelating activity at iron(III) in chrome azurol sulphonate solution at 1000 ug/ml incubated for 30 mins by spectrophotometric analysis; conditions: dose 1000.0 µg/ml
Staphylococcus aureus [19] = assay: Inhibition of virulence production in Staphylococcus aureus CECT 976 biofilms assessed as diameter of siderophores halo at 1/2XMTC measured after 48 hrs in presence of 1/2XMIC tobramycin (reference value: 10.5 +/-0.6 mm); type: functional
Cell membrane [20] = assay: Disruption of membrane integrity in Staphylococcus aureus CECT 976 biofilm assessed as increase in PI uptake at 500 ug/ml measured after 24 hrs in presence of 1/8X to 1/2XMIC tobramycin by flow cytometry; type: subcellular; conditions: dose 500.0 µg/ml
Pseudomonas aeruginosa [21] = assay: Antibiofilm activity against preestablished 24 hr-old Pseudomonas aeruginosa ATCC 10145 assessed as reduction in metabolic activity of biofilm cells at 10XMTC by resazurin staining based fluorescence analysis; type: functional
Staphylococcus aureus [22] = assay: Inhibition of virulence production in pre-established 24 hr-old Staphylococcus aureus CECT 976 biofilms assessed as diameter of protease halo at 10XMTC measured after 72 hrs in presence of 1/2XMIC tobramycin (reference value: 11.8 to 12.3 mm); type: functional
Staphylococcus aureus [23] = assay: Antibiotic adjuvant activity against Staphylococcus aureus CECT 976 assessed as potentiation of tobramycin-induced antibiofilm activity by measuring reduction in biomass production at 500 ug/ml measured after 24 hrs in presence of tobramycin by crystal violet staining method; type: functional, organism-based; conditions: dose 500.0 µg/ml
Staphylococcus aureus [24] = assay: Antibiofilm activity against Staphylococcus aureus CECT 976 assessed as reduction in biofilm cells culturability at 500 to 1000 ug/ml measured after 24 hrs by visual counting method; type: functional, organism-based; conditions: dose 500-1000 µg/ml
Staphylococcus aureus [25] = assay: Inhibition of virulence production in Staphylococcus aureus CECT 976 biofilms assessed as diameter of siderophores halo at 1/2XMTC measured after 48 hrs in presence of 1/4XMIC tobramycin (reference value: 10.5 +/-0.6 mm); type: functional
Cell membrane [26] = assay: Disruption of membrane integrity in Staphylococcus aureus CECT 976 biofilm at 500 ug/ml measured after 24 hrs in presence of 1/2XMIC tobramycin by SYTO9/PI dye based epifluorescence microscopy; type: subcellular; conditions: dose 500.0 µg/ml
Staphylococcus aureus [27] = assay: Inhibition of virulence production in pre-established 24 hr-old Staphylococcus aureus CECT 976 biofilms assessed as diameter of gelatinases halo at 10XMTC measured after 48 hrs in presence of 1/2XMIC tobramycin (reference value: 9.3 to 9.5 mm); type: functional
Staphylococcus aureus [28] = assay: Inhibition of virulence production in pre-established 24 hr-old Staphylococcus aureus CECT 976 biofilms assessed as diameter of gelatinases halo at 10XMTC measured after 48 hrs (reference value: 10.8 to 11 mm); type: functional

SMILES | Activity [1] | Activity (Pseudomonas aeruginosa [2]) | Activity (Staphylococcus aureus [3]) | Activity (Pseudomonas aeruginosa [4]) | Activity (Staphylococcus aureus [5]) | Activity (Staphylococcus aureus [6]) | Activity (Staphylococcus aureus [7]) | Activity (Staphylococcus aureus [8]) | Activity (Staphylococcus aureus [9]) | Activity (Staphylococcus aureus [10]) | MIC (Staphylococcus aureus [11]) | Activity (Staphylococcus aureus [12]) | zone of inhibition at 1000 µg/mL (Staphylococcus aureus [13]) | inhibition (INH) (Pseudomonas aeruginosa [14]) | Activity (Staphylococcus aureus [15]) | fractional inhibitory concentration index (FICI) (Staphylococcus aureus [16]) | Activity (Cell membrane [17]) | Activity [18] | Activity (Staphylococcus aureus [19]) | Activity (Cell membrane [20]) | also measured
O=c1cc(CO)occ1O [KOJIC ACID] | Dose-dependent-effect | inactive | 0 mm | inactive | 10.3 mm | 0 mm | 10 mm | 0 mm | 0 mm | 10 mm | > 1000 mg/L | 0 mm | 9.5 mm | 15% | 10 mm | 0.3 | 90% | 85% | 9.75 mm | inactive | inhibition (INH) (Pseudomonas aeruginosa [21]): 70%; Activity (Staphylococcus aureus [22]): 0 mm; Activity (Staphylococcus aureus [23]): Active; Slight Increase Noted; Activity (Staphylococcus aureus [24]): inactive; Activity (Staphylococcus aureus [25]): 9.5 mm; Activity (Cell membrane [26]): inactive; Activity (Staphylococcus aureus [27]): 0 mm; Activity (Staphylococcus aureus [28]): 0 mm
Cc1occc(=O)c1O [MALTOL] | Dose-dependent-effect | inactive | 0 mm | inactive | 10.3 mm | 0 mm | 10 mm | 0 mm | 0 mm | 10.3 mm | > 1000 mg/L | 0 mm | 17.5 mm | 15% | 10 mm | 0.3 | 90% | 90% | 9.5 mm | inactive | inhibition (INH) (Pseudomonas aeruginosa [21]): 70%; Activity (Staphylococcus aureus [22]): 0 mm; Activity (Staphylococcus aureus [23]): Active; Slight Increase Noted; Activity (Staphylococcus aureus [24]): inactive; Activity (Staphylococcus aureus [25]): 9.5 mm; Activity (Cell membrane [26]): inactive; Activity (Staphylococcus aureus [27]): 0 mm; Activity (Staphylococcus aureus [28]): 0 mm

Source: ChEMBL document CHEMBL6120994, “Unravelling the potential of natural chelating agents in the control of Staphylococcus aureus and Pseudomonas aeruginosa biofilms” (Eur J Med Chem, 2025)
